Our source for the IC50 values is ChEMBL document CHEMBL3769398 (J Med Chem, 2016).

Experiment [1] concerns the target T1, Protein deacetylase HDAC6 (Homo sapiens, UniProt Q9UBN7).
T1 sequence (Q9UBN7 whole entry): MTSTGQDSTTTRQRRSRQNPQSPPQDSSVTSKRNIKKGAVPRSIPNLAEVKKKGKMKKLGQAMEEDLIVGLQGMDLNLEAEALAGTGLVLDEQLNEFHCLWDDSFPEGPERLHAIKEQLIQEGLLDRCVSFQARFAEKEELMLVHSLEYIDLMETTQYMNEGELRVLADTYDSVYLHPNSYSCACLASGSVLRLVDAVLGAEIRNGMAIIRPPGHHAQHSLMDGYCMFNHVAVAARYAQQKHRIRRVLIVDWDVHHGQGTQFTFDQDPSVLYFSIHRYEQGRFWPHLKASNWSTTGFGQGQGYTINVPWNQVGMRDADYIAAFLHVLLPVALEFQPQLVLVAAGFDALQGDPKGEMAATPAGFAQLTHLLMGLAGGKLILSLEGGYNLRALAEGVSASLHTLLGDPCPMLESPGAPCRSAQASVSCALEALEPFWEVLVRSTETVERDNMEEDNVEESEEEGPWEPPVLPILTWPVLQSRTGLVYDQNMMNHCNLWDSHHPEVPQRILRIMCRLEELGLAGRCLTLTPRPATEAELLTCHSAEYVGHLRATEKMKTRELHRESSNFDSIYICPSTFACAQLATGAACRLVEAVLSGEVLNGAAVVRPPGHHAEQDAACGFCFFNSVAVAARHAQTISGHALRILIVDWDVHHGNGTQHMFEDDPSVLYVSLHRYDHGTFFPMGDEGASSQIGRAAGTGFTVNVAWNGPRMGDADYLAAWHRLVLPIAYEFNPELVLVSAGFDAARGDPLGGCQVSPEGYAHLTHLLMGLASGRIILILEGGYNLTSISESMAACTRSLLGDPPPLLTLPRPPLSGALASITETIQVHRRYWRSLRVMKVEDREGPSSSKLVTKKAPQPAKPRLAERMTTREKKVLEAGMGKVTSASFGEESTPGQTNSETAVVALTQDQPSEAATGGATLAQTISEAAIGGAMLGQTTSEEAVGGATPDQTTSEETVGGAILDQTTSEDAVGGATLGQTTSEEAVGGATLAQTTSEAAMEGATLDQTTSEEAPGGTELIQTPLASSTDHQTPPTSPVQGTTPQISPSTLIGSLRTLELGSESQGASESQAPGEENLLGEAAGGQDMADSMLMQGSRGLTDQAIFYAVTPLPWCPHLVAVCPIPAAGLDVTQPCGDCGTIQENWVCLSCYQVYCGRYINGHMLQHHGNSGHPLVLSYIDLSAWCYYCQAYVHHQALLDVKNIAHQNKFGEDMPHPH
The experiment in a line: Inhibition of human KDAC6 by fluorescence assay.

The target of experiment [2] is T2, Histone deacetylase 8 (Homo sapiens, UniProt Q9BY41).
T2 sequence (Q9BY41 whole entry): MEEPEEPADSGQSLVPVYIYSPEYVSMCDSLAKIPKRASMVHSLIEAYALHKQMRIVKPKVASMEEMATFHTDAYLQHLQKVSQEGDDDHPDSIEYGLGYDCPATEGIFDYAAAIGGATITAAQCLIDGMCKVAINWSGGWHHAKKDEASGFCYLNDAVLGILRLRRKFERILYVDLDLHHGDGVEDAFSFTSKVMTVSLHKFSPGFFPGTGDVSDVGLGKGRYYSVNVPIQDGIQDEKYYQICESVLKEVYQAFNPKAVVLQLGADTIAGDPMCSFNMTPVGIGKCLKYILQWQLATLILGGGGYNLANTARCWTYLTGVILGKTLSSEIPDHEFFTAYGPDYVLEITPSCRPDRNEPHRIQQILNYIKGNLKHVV
Kind of experiment: Inhibition of human KDAC8 by fluorescence assay.

The target in experiment [3] is T3, Histone deacetylase 3 (Homo sapiens, UniProt O15379). The experiment in a line: Inhibition of recombinant human KDAC3 using FITC-p53 acetylated peptide substrate incubated for 60 mins by microfluidic chip-based assay.
T3 sequence (O15379 whole entry): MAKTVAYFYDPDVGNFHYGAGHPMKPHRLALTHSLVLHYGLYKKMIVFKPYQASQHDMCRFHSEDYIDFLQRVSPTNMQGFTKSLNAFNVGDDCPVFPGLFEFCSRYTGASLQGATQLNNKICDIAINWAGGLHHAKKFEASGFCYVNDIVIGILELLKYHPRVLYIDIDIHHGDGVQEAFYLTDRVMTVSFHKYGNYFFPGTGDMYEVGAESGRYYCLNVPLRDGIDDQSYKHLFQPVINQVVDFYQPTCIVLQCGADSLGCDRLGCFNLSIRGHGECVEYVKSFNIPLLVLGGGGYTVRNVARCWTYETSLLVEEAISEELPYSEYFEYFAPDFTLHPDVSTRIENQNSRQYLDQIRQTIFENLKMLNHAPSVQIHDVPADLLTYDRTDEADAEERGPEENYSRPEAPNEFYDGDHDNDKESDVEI
Experiment [4] deals with T4, Histone deacetylase 1 (Homo sapiens, UniProt Q13547). Kind of experiment: Inhibition of recombinant human KDAC1 using FAM-labelled substrate A incubated for 60 mins by microfluidic chip-based assay.
T4 sequence (Q13547 whole entry): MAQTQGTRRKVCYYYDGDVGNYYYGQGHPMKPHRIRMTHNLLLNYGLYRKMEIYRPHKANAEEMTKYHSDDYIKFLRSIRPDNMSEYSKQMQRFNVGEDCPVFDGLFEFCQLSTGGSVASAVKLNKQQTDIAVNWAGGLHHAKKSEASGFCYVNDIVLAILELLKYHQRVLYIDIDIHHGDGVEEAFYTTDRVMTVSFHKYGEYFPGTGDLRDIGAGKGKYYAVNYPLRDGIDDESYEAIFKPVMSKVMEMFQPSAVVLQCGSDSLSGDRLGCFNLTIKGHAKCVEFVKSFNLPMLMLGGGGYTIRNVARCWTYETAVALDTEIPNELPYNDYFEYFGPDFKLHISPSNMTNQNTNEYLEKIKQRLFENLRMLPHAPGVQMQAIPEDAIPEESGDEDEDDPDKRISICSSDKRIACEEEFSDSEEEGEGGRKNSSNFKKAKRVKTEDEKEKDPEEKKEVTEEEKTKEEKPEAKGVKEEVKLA
Experiment [5] concerns the target T2, Histone deacetylase 8. The experiment in a line: Inhibition of recombinant human KDAC8 using FAM-labelled substrate B incubated for 60 mins by microfluidic chip-based assay.
In experiment [6] the target is T4, Histone deacetylase 1. The experiment in a line: Inhibition of human KDAC1.
The target of experiment [7] is T3, Histone deacetylase 3. Kind of experiment: Inhibition of human KDAC3.
In experiment [8] the target is T2, Histone deacetylase 8. The experiment in a line: Inhibition of human KDAC8.
Experiment [9] has as its target T1, Protein deacetylase HDAC6. The experiment in a line: Inhibition of human KDAC6.
The target in experiment [10] is T2, Histone deacetylase 8. The experiment in a line: Inhibition of full length human recombinant KDAC8 using fluorophore-conjugated substrate measured as fluorigenic release of 7-amino-4-methylcoumarin by microtiter plate reader analysis.

Usually IC50 stands for the concentration needed to halve the response being measured.

As to `Nc1ccccc1NC(=O)c1ccc(-c2cn(CCc3ccsc3)nn2)cc1`, the IC50 in experiment [1] and in experiment [2] was above 30 µM in each case.
Turning to `CC(C)[C@@H]1NC(=O)[C@@H]2CCCN2C(=O)[C@H]2CCCN2C(=O)C[C@@H](C(=O)NCCCC(=O)NO)NC1=O`, the values for the IC50 in experiment [3], in experiment [4] and in experiment [5] were 13.7 µM, 25.1 µM and above 30 µM, respectively.
Taken in the same sequence, the figures for `CC(C)[C@@H]1NC(=O)[C@H]2CCCN2C(=O)[C@@H]2CCCN2C(=O)C[C@H](C(=O)NCCCC(=O)NO)NC1=O` were above 30 µM, above 30 µM and above 30 µM.
Consider `CC(=O)SCC/C=C/[C@@H]1CC(=O)NCc2ccc(cc2)C2=N[C@@](C)(CS2)C(=O)N[C@@H](C(C)C)C(=O)O1`, for which the IC50 in [6] was 3.48 µM; in experiment [7], 0.47 µM; in [8], above 30 µM; in experiment [9] it was 1.61 µM.
`CCCCCCCC(=O)SCC/C=C/[C@@H]1CC(=O)NCc2nc(cs2)C2=N[C@@](C)(CS2)C(=O)N[C@@H](C(C)C)C(=O)O1` [LARGAZOLE]: the IC50 in [10] is above 30 µM.
